Holding throughout (assay): Protease Inhibition Assay
For assay [1], the target named is T1, Genome polyprotein [1424-1463]/[1502-1685] (West Nile virus, UniProt P06935).
T1 construct: 1424-1463; 1502-1685
T1 sequence (P06935 whole entry) 1: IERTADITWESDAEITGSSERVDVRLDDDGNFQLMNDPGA
T1 sequence (P06935 whole entry) 2: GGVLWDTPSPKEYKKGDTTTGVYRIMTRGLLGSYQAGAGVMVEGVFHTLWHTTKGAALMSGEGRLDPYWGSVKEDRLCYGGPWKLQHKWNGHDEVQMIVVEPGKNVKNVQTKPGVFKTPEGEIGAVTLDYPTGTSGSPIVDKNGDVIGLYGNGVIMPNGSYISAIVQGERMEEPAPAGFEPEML
Particulars: pH 8.5; 23 °C. The method, then:
(§1) All proteases were assayed by monitoring the cleavage of peptide substrate with fluorescent reporter at room temperature with a microtiter plate spectrofluorometer. Three different concentrations of inhibitors were used for calculating Ki values. Kinetic data were measured with an excitation wavelength of 390nm and emission wavelength of 460nm. From the initial velocities of the reactions Ki values were calculated by nonlinear regression method using the program EZ-fit (Perella Scientific).

For assay [2], the target named is T2, Genome polyprotein [1066-1250,R1182K]/[1394-1440,K1405R,D1408E] (dengue virus type 2, UniProt P14340+P27914, D1408E/K1405R/R1182K).
T2 construct: 1066-1250; 1394-1440
The settings on record: pH 8.5; 23 °C. The method, then: as §1

The target of the next assay is T3, Serine protease 1 (Bos taurus, UniProt P00760).
T3 sequence (P00760 whole entry): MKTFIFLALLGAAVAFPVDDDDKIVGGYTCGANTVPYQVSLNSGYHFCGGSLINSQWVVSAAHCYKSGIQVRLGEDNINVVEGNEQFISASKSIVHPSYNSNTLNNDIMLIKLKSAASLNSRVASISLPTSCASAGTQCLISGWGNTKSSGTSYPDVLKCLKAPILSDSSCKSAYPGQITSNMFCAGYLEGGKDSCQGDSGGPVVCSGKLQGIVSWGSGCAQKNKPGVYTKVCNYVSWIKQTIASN
The settings on record: pH 7.6; 23 °C. Here is the method:
as §1

This is an account of results in BindingDB's records for doi:10.1016/j.bmc.2004.09.036 (University of Alabama At Birmingham, 2005).

T2 sequence (P14340 1394-1440, looked up, stated change not applied): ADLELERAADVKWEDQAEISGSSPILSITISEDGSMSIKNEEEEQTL
T2 sequence (P27914 1066-1250, looked up, stated change not applied): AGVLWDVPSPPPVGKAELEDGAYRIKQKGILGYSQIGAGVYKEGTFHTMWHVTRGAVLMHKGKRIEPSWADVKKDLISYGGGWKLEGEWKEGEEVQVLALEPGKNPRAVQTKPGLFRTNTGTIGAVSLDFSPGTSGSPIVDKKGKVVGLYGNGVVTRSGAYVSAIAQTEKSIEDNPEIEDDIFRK

One may read the Ki as the dissociation constant of the complex between target and ligand, obtained from inhibition or displacement. Consider `N=C(N)NN=CC=NN=C(N)N` [biguanidine, 2], for which the values for the Ki (in assay [1]; in assay [2]; on Serine protease 1) were 337 µM, 423 µM and 155 µM, respectively.

Take `NC(N)=NN=C1C(=O)Nc2ccccc21` [guanidine, 4]: the inhibition constant Ki in assay [1] amounted to 16 µM; in assay [2] it was 23 µM; at Serine protease 1 it was 4 µM.

Consider `NC(N)=NNc1ccc(NNC(N)N)cc1` [biguanidine, 3], for which the Ki came out at 1090 µM in assay [1], 1780 µM in assay [2] and 51 µM at Serine protease 1.

Consider `NC(N)=NN=Cc1ccc(C=NN=C(N)N)cc1` [biguanidine, 1], for which the Ki came to 35 µM in assay [1], 44 µM in assay [2] and 87 µM at Serine protease 1.

For `Cc1ccc(C(=NN=C(N)N)P(O)O)cc1` [guanidine, 5], the values for the Ki (in assay [1]; in assay [2]; at Serine protease 1) were 13 µM, 14 µM and 3.2 µM, respectively.
